Test results from patent US11292801B2, “Calpain modulators and therapeutic uses thereof” (Blade Therapeutics, Inc., priority 2016, dated 2022).

What was measured:
Human Calpain 9/NS1 = molecular target: T1, Human Calpain 9/NS1 (Homo sapiens, UniProt O14815); test: Biochemical inhibition of calpain 9, continuous fluorescence (FRET substrate) assay; details: mean, read-out: Human Calpain 9/NS1 IC50 (nM)_MEAN
T1 sequence (O14815 1-690): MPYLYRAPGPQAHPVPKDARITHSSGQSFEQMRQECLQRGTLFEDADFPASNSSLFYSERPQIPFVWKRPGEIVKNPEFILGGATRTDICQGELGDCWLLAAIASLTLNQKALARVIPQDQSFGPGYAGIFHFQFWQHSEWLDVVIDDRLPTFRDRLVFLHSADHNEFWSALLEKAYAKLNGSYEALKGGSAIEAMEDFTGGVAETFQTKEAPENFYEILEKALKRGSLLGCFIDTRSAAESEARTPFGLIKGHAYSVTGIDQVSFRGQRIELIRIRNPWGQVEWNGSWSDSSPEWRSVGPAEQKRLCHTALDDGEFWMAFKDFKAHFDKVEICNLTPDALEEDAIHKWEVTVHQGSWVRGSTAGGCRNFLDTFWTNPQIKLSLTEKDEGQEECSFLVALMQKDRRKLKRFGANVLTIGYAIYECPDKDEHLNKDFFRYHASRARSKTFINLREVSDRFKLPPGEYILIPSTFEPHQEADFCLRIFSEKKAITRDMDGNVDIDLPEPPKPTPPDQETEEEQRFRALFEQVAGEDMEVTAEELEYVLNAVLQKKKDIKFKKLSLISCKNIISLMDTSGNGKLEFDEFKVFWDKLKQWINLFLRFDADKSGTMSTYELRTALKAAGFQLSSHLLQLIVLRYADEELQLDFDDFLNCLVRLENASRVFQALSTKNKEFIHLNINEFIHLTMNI
T1 sequence (P04632 1-268 partner): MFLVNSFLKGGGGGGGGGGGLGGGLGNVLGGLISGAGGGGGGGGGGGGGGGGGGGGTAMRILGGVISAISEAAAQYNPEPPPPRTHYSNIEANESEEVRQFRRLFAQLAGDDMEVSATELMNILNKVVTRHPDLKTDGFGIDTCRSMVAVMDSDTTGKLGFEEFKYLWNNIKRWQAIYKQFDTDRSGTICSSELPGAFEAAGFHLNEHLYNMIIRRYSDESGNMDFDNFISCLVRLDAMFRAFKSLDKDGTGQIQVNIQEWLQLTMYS
Method: (§1) Calpain 1, 2, and 9 activity and inhibition thereof are assessed by means of a continuous fluorescence assay. The SensoLyte 520 Calpain substrate (Anaspec Inc) is optimized for detecting calpain activity. This substrate contains a novel internally quenched 5-FAM/QXL™ 520 FRET pair. Calpains 1, 2, and 9 cleave the FRET substrate into two separate fragments resulting in an increase of 5-FAM fluorescence that is proportional to calpain activity.
(§2) Assays are typically setup in black 384-well plates using automated liquid handling as follows. Calpain assay base buffer typically contains 50 mM Tris, pH˜7.5, 100 mM NaCl and 1 mM DTT. Inhibitors are serially diluted in DMSO and used to setup 2× mixtures with calpains in the aforementioned buffer. After incubation at ambient temperature (25C), the reaction is initiated by adding a 2× mix of the fluorescent peptide substrate and CaCl2) (required for in-situ calpain activation) in the same buffer. Reaction progress curve data are typically collected for 10 min using excitation/emission wavelengths of 490 nm/520 nm on SpectraMax i3× or the FLIPR-Tetra plate readers (Molecular Devices Inc). Reaction rates were calculated from progress curve slopes typically over 1-5 min. Dose response curves (rate vs. log inhibitor concentration) were typically fit to a 4-parameter logistic function to extract IC50 values.

Human Calpain 2/NS1 = molecular target: T2, Human Calpain 2/NS1 (Homo sapiens, UniProt P17655); test: Biochemical inhibition of calpain 2, continuous fluorescence (FRET substrate) assay; details: mean, read-out: Human Calpain 2/NS1 IC50 (nM)_MEAN
T2 sequence (P17655 1-700): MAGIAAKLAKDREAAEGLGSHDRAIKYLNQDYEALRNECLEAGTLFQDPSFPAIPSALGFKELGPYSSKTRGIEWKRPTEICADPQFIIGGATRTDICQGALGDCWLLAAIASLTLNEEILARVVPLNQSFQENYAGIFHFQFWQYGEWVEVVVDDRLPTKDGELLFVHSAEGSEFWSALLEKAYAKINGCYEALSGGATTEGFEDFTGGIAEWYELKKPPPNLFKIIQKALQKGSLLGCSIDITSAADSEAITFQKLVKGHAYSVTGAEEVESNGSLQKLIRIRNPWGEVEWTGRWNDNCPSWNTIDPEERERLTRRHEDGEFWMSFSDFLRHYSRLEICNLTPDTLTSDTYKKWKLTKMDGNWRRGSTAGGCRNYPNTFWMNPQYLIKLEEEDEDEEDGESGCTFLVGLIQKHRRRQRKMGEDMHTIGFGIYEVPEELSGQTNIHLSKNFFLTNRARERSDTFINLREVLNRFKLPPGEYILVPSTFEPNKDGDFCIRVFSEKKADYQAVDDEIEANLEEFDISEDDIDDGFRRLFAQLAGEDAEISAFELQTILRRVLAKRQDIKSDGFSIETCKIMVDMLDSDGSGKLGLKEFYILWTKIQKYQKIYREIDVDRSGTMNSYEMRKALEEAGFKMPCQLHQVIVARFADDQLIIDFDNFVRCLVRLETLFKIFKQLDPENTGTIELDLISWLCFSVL
T2 sequence (P04632 1-268 partner): T1 sequence (P04632 1-268 partner)
Method: as §1, §2

Human Calpain 1/NS1 = molecular target: T3, Human Calpain 1/NS1 (Homo sapiens, UniProt P07384); test: Biochemical inhibition of calpain 1, continuous fluorescence (FRET substrate) assay; details: mean, read-out: Human Calpain 1/NS1 IC50 (nM)_MEAN
T3 sequence (P07384 1-714): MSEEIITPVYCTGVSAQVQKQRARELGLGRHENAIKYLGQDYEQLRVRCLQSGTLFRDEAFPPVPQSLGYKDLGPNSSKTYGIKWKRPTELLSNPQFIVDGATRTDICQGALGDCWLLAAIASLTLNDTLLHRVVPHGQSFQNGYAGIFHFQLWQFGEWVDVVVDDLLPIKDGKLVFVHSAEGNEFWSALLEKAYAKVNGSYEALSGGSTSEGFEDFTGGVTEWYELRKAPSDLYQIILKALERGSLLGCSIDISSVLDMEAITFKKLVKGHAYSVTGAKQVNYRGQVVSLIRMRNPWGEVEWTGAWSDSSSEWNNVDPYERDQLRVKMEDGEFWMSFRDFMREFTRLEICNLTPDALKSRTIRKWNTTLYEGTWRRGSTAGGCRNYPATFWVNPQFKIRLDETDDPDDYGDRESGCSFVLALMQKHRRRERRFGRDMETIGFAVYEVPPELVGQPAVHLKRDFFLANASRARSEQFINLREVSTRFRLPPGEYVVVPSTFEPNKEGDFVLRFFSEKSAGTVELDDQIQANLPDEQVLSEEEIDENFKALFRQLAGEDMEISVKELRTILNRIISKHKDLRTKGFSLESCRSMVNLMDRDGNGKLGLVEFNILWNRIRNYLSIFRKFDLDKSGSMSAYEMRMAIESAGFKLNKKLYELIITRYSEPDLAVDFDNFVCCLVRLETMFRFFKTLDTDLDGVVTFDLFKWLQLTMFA
T3 sequence (P04632 1-268 partner): T1 sequence (P04632 1-268 partner)
Method: as §1, §2

| Compound | IC50 (Human Calpain 9/NS1) | IC50 (Human Calpain 2/NS1) | IC50 (Human Calpain 1/NS1) |
| --- | --- | --- | --- |
| (S)-2-(1^3-methyl-11-oxo-1^1H-3-oxa-10-aza-1(1,5)-pyrazola-2(1,3)-benzenacycloundecaphane-9-yl)-2-oxoacetamide [Compound 143] | < 3000 nM | < 3000 nM | < 3000 nM |
| CS(=O)(=O)c1cccc(CNC(=O)C(=O)C2CCCCOCCOCc3ccccc3C(=O)N2)c1 (stereo not drawn) [Compound 118, N-(3-(methylsulfonyl)benzyl)-2-oxo-2-(12-oxo-1,3,4,6,7,8,9,10,11,12-decahydrobenzo[f][1,4]dioxa[9]azacyclotetradecin-10-yl)acetamide] | < 3000 nM | > 10000 nM | > 10000 nM |
| NC(=O)C(=O)[C@@H]1CCCCCCOc2ccnc(c2)-c2ccccc2C(=O)N1 [Compound 132, (S)-2-oxo-2-(3-oxo-12-oxa-4-aza-1(2,4)-pyridina-2(1,2)-benzenacyclododecaphane-5-yl)acetamide] | < 3000 nM | < 3000 nM | < 3000 nM |
| CN(C)CCCNC(=O)C(=O)C1CCCCOCCOCc2ccccc2C(=O)N1 (stereo not drawn) [Compound 93, N-(3-(dimethylamino)propyl)-2-oxo-2-(12-oxo-1,3,4,6,7,8,9,10,11,12-decahydrobenzo[f][1,4]dioxa[9]azacyclotetradecin-10-yl)acetamide] | > 10000 nM | > 10000 nM | > 10000 nM |
| O=C[C@@H]1CCCCCCCOc2ccccc2C(=O)N1 [Compound 6, (S)-11-Oxo-2,3,4,5,6,7,8,9,10,11-decahydrobenzo[b][1]oxa[5]azacyclotridecine-9-carbaldehyde] | < 3000 nM | < 3000 nM | 3000 to 10000 nM |
| CN(C)c1ccc(CNC(=O)C(=O)C2CCCCOCCOCc3ccccc3C(=O)N2)cc1 (stereo not drawn) [Compound 113, N-(4-(dimethylamino)benzyl)-2-oxo-2-(12-oxo-1,3,4,6,7,8,9,10,11,12-decahydrobenzo[f][1,4]dioxa[9]azacyclotetradecin-10-yl)acetamide] | < 3000 nM | > 10000 nM | > 10000 nM |
| CCNC(=O)C(=O)[C@@H]1C/C=C/CCCCCCCc2ccccc2C(=O)N1 [Compound 33, (S,E)-N-ethyl-2-oxo-2-(1-oxo-2,3,4,7,8,9,10,11,12,13-decahydro-1h-benzo[c][1]azacyclopentadecin-3-yl)acetamide] | > 10000 nM | > 10000 nM | > 10000 nM |
| O=C(NCCc1ccccn1)C(=O)C1CCCCOCCOCc2ccccc2C(=O)N1 (stereo not drawn) [Compound 82, 2-Oxo-2-(12-oxo-1,3,4,6,7,8,9,10,11,12-decahydrobenzo[f][1,4]dioxa[9]aza-cyclotetradecin-10-yl)-N-(2-(pyridin-2-yl)ethyl)acetamide] | 3000 to 10000 nM | > 10000 nM | > 10000 nM |
| O=C(NCc1ccccn1)C(=O)C1CCCCOCCOCc2ccccc2C(=O)N1 (stereo not drawn) [Compound 94, 2-Oxo-2-(12-oxo-1,3,4,6,7,8,9,10,11,12-decahydrobenzo[f][1,4]dioxa[9]aza-cyclotetradecin-10-yl)-N-(pyridin-2-ylmethyl)acetamide] | < 3000 nM | > 10000 nM | > 10000 nM |
| CON(C)C(=O)[C@@H]1C/C=C\CCOc2ccnc(n2)-c2ccccc2C(=O)N1 [Compound 136, (S,Z)—N-methoxy-N-methyl-3-oxo-11-oxa-4-aza-1(2,4)-pyrimidina-2(1,2)-benzenacycloundecaphan-7-ene-5-carboxamide] | > 10000 nM | > 10000 nM | > 10000 nM |
| O=C[C@@H]1Cc2ccc(cc2)CCCCc2cccc(c2)-c2ccn(n2)-c2ncccc2C(=O)N1 [Compound 73, (10S,E)-12-oxo-2^1H-11-aza-1(2,3)-pyridina-2(1,3)-pyrazola-3(1,3),8(1,4)-dibenzenacyclododecaphane-10-carbaldehyde] | < 3000 nM | < 3000 nM | < 3000 nM |
